Tests used:
[1] = Inhibition of DNA-PK (unknown origin); parameters: species or system Homo sapiens
Cytochrome P450 1A2 = biological target: T1, Cytochrome P450 1A2 (Homo sapiens, UniProt P05177); test: Inhibition of CYP1A2 (unknown origin); type: ADME
T1 sequence (P05177 whole entry): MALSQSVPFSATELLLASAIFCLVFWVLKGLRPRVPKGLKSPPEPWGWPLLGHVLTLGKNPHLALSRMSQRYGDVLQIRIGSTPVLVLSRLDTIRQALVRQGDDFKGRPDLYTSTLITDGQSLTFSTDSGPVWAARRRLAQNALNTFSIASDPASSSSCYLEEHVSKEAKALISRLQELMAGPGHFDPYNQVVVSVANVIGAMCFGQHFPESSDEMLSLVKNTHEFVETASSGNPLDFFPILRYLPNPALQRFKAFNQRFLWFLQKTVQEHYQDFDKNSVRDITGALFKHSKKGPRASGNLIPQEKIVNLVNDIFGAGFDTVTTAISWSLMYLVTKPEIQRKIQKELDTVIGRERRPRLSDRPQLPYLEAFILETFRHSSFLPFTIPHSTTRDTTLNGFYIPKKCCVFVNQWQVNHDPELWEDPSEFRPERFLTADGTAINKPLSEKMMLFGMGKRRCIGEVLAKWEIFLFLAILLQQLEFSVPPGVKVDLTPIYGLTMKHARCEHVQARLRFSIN

[2] = Toxicity in ICR male mouse assessed as mortality at 2000 mg/kg, po measured after 14 days; type: organism-based; conditions: in vivo, 336 h, time 14 day
HT-29 [3] = test: Antiproliferative activity against human HT-29 cells incubated for 72 hrs by CCK-8 assay; type: functional, cell-based; conditions: HT-29, 72 h
LoVo [4] = test: Antitumor activity against human LoVo cells xenografted in BALB/c mouse assessed as tumor growth inhibition at 50 mg/kg, po qd administered for 21 consecutive days relative to control; type: functional; conditions: 504 h, time 21 day, read-out: TGI
[5] = Toxicity in ICR mouse assessed as body weight change at 2000 mg/kg, po measured after 14 days; type: organism-based; conditions: in vivo, 336 h, time 14 day
[6] = Cmax in ICR mouse at 10 mg/kg, po measured upto 24 hrs by LC-MS/MS analysis; type: ADME, organism-based; parameters: time < 24 hrs, dose 10 mg/kg, route po; conditions: in vivo
[7] = biological target: Serine/threonine-protein kinase mTOR (Homo sapiens, UniProt P42345); test: Inhibition of mTOR (unknown origin)
[8] = AUC (0 to t) in ICR mouse at 10 mg/kg, po measured upto 24 hrs by LC-MS/MS analysis; type: ADME, organism-based; parameters: dose 10 mg/kg, time < 24 hrs, route po; conditions: in vivo
[9] = AUC (0 to infinity) in ICR mouse at 1 mg/kg, iv measured upto 24 hrs by LC-MS/MS analysis; type: ADME, organism-based; parameters: dose 1 mg/kg, time < 24 hrs, route iv; conditions: in vivo
[10] = Tmax in ICR mouse at 1 mg/kg, iv measured upto 24 hrs by LC-MS/MS analysis; type: ADME, organism-based; conditions: in vivo
[11] = MRT (0 to t) in ICR mouse at 10 mg/kg, po measured upto 24 hrs by LC-MS/MS analysis; type: ADME, organism-based; conditions: in vivo
[12] = Cmax in ICR mouse at 1 mg/kg, iv measured upto 24 hrs by LC-MS/MS analysis; type: ADME, organism-based; parameters: time < 24 hrs, dose 1 mg/kg, route iv; conditions: in vivo
[13] = MRT (0 to infinity) in ICR mouse at 1 mg/kg, iv measured upto 24 hrs by LC-MS/MS analysis; type: ADME, organism-based; conditions: in vivo, iv, 1 mg/kg, 24 h
[14] = AUC (0 to infinity) in ICR mouse at 10 mg/kg, po measured upto 24 hrs by LC-MS/MS analysis; type: ADME, organism-based; parameters: dose 10 mg/kg, time < 24 hrs, route po; conditions: in vivo
[15] = biological target: Serine/threonine-protein kinase ATR (Homo sapiens, UniProt Q13535); test: Inhibition of ATR (unknown origin)
[16] = MRT (0 to t) in ICR mouse at 1 mg/kg, iv measured upto 24 hrs by LC-MS/MS analysis; type: ADME, organism-based; conditions: in vivo
[17] = Toxicity in po dosed ICR mouse assessed as mortality measured after 14 days; type: organism-based; conditions: in vivo, time 14 day
[18] = Volume of distribution at steady state in ICR mouse at 1 mg/kg, iv measured upto 24 hrs by LC-MS/MS analysis; type: ADME, organism-based; conditions: in vivo, iv, 1 mg/kg, 24 h
[19] = Oral bioavailability in ICR mouse at 10 mg/kg measured upto 24 hrs by LC-MS/MS analysis; type: ADME, organism-based; conditions: in vivo
Cytochrome P450 3A4 = Cytochrome P450 3A4 (Homo sapiens, UniProt P08684); test: Inhibition of CYP3A4 (unknown origin); type: ADME
[20] = Clearance in ICR mouse at 1 mg/kg, iv measured upto 24 hrs by LC-MS/MS analysis; type: ADME, organism-based; conditions: in vivo, iv, 1 mg/kg, 24 h
HT-29 [21] = test: Antiproliferative activity against human HT-29 cells in presence of AZD1390 incubated for 72 hrs by CCK-8 assay; type: functional, cell-based; conditions: HT-29, 72 h
[22] = Half life in ICR mouse at 1 mg/kg, iv measured upto 24 hrs by LC-MS/MS analysis; type: ADME, organism-based; conditions: in vivo
[23] = AUC (0 to t) in ICR mouse at 1 mg/kg, iv measured upto 24 hrs by LC-MS/MS analysis; type: ADME, organism-based; parameters: dose 1 mg/kg, time < 24 hrs, route iv; conditions: in vivo
[24] = Half life in ICR mouse at 10 mg/kg, po measured upto 24 hrs by LC-MS/MS analysis; type: ADME, organism-based; conditions: in vivo
[25] = Tmax in ICR mouse at 10 mg/kg, po measured upto 24 hrs by LC-MS/MS analysis; type: ADME, organism-based; conditions: in vivo
LoVo [26] = test: Antiproliferative activity against human LoVo cells incubated for 72 hrs by CCK-8 assay; type: functional, cell-based
[27] = Acute toxicity in ICR mouse assessed as mortality at 2000 mg/kg, po measured after 14 days; type: organism-based; conditions: in vivo, 336 h, time 14 day
LoVo [28] = test: Antitumor activity against human LoVo cells xenografted in BALB/c mouse assessed as tumor growth inhibition at 50 mg/kg, po bid administered for 21 consecutive days relative to control; type: functional; conditions: 504 h, time 21 day, read-out: TGI
[29] = Initial plasma concentration in ICR mouse at 1 mg/kg, iv measured upto 24 hrs by LC-MS/MS analysis; type: ADME, organism-based
[30] = MRT (0 to infinity) in ICR mouse at 10 mg/kg, po measured upto 24 hrs by LC-MS/MS analysis; type: ADME, organism-based; conditions: in vivo

Serine/threonine-protein kinase ATR, sequence (Q13535 whole entry): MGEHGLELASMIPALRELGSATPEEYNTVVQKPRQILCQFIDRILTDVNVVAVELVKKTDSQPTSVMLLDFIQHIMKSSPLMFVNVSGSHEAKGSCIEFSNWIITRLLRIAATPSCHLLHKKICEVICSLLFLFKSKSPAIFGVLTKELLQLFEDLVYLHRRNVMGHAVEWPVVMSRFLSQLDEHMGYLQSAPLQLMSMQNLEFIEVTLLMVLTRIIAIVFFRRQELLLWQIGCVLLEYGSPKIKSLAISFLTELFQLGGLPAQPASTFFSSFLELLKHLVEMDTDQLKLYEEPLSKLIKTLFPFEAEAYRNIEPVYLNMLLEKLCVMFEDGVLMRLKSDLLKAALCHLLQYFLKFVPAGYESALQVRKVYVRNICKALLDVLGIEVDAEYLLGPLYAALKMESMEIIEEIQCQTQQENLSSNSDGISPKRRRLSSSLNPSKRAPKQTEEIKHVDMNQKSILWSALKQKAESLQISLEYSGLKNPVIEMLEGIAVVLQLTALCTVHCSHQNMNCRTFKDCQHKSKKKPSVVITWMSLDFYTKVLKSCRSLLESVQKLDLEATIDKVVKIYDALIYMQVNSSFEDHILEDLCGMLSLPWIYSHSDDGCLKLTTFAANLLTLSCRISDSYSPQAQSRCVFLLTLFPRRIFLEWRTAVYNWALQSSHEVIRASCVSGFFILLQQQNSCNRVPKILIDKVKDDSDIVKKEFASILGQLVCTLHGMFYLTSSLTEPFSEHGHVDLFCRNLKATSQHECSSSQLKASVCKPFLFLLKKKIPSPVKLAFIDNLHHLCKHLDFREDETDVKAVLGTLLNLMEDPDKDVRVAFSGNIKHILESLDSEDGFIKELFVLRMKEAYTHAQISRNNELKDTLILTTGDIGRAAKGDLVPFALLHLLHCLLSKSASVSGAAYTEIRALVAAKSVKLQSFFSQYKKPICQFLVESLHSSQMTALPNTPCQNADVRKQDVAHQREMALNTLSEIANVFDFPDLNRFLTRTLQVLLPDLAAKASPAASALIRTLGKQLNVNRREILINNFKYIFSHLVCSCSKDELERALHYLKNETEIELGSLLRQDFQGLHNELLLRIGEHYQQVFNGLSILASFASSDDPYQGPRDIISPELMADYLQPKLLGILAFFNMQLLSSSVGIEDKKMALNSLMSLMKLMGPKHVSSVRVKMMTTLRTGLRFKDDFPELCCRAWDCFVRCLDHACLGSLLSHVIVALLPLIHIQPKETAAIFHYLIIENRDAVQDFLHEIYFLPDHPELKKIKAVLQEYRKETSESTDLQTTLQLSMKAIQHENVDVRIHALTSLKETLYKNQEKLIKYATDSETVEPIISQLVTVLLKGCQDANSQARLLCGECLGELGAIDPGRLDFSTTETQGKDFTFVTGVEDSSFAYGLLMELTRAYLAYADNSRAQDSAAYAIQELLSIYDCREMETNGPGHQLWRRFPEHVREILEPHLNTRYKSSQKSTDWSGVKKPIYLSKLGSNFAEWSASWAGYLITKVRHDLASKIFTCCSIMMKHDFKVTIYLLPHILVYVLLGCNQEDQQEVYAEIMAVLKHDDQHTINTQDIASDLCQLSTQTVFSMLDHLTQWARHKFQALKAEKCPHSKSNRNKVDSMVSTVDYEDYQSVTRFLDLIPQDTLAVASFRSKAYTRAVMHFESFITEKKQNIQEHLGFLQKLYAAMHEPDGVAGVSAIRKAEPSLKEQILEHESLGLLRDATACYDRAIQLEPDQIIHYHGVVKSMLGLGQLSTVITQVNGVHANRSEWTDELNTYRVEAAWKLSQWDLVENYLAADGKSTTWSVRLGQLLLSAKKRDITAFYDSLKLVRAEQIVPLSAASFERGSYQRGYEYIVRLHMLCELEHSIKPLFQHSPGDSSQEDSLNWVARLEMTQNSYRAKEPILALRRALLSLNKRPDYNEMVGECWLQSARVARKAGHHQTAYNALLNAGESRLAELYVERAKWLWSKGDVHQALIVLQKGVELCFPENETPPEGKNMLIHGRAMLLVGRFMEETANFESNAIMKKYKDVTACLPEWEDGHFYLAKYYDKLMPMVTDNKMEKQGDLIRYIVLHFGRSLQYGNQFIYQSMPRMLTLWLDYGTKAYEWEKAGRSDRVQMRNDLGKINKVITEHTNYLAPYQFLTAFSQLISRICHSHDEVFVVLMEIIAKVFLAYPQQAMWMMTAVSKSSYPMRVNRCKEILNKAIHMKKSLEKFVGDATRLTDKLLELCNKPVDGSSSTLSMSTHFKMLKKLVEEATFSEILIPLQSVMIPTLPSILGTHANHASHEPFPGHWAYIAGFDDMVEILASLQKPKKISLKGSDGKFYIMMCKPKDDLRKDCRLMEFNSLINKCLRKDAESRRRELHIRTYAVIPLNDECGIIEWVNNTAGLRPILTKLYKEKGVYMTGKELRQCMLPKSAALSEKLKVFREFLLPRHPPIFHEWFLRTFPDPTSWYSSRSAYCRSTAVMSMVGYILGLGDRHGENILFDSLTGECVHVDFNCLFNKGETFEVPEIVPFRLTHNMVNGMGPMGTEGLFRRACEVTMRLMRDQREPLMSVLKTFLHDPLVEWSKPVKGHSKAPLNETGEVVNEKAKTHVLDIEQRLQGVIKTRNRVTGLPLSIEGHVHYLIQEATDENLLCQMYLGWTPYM
Cytochrome P450 3A4, sequence (P08684 whole entry): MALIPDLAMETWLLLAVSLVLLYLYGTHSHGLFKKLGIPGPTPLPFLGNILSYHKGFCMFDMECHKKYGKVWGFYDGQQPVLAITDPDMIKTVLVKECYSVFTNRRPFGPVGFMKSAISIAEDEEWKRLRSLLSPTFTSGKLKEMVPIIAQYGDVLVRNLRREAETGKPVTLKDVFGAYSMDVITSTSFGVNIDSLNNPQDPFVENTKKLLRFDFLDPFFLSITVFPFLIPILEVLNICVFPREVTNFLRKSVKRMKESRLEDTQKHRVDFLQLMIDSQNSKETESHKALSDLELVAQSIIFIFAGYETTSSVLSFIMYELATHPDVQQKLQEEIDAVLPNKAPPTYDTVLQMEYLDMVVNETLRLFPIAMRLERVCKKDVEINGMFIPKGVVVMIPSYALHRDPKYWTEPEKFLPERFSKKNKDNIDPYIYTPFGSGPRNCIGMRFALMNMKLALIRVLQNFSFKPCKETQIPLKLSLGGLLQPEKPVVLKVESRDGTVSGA

For `CNc1nc2ccccc2n1-c1nc(N2CCOC[C@H]2C)c2scc(S(C)(=O)=O)c2n1`, the IC50 [1] was 25.3 nM, the “inhibition (INH)” value (Cytochrome P450 1A2) was “Not Active” and the Activity [2] was “Toxic”. For the same compound, the IC50 (HT-29 [3]) was 161 nM, the inhibition in vivo at 50 mg/kg (LoVo [4]) was 32% and the Activity [5] was “Non-Toxic”. The Cmax [6] was 1270 ng/mL, the IC50 [7] was 58.8 nM and the AUC(0-t) at 24 h [8] was 4300 ng·h/mL. It also gave an AUC(0-inf) [9] of 962 ng·h/mL, a Tmax [10] of 4.8 min and an MRT last at 24 h [11] of 5.3 h. For the same compound, the Cmax [12] was 1140 ng/mL, the MRT [13] was 0.97 h and the AUC(0-inf) [14] was 4420 ng·h/mL. It also gave an IC50 [15] of 1.5 nM, an MRT last at 24 h [16] of 0.89 h and an LD50 at 336 h [17] of 2000 mg/kg. The Vdss [18] was 2.371 L/kg, the bioavailability [19] was 46% and the “inhibition (INH)” value (Cytochrome P450 3A4) was “Not Active”. For the same compound, the CL [20] was 17.35 mL/min/kg, the IC50 (HT-29 [21]) was 3 nM and the half-life [22] was 1.56 h. It also gave an AUC(0-t) at 24 h [23] of 954 ng·h/mL, a half-life [24] of 5.06 h and a Tmax [25] of 0.25 h. For the same compound, the IC50 (LoVo [26]) was 73 nM, the Activity [27] was “Toxic” and the inhibition in vivo at 50 mg/kg (LoVo [28]) was 55%. It also gave a C0 at 24 h [29] of 1310 ng/mL and an MRT inf [30] of 6.2 h.

Reference: ChEMBL document CHEMBL5321234, “Discovery of Thieno[3,2-d]pyrimidine derivatives as potent and selective inhibitors of ataxia telangiectasia mutated and Rad3 related (ATR) kinase” (Eur J Med Chem, 2023)
